Test results taken from US20240390350A1, “PHENYL CORE COMPOUNDS AS MGLU5 NEGATIVE ALLOSTERIC MODULATORS AND METHODS OF MAKING AND USING THE SAME” (Vanderbilt University, priority 2021, published 2024).

The compounds below were run against T1, human mGlu5 (Homo sapiens, UniProt P41594) (assay: mGlu5 negative allosteric modulator Ca2+ flux assay in HEK 293A cells (Table 1)). Conditions: HEK 293A cells stably expressing mGlu5; Ca2+ flux (Fluo-4); decrease of glutamate EC80 response; read-out: hmGlu5 NAM IC50.
T1 construct: expressed in transfected cells; host or cells: HEK 293A
Type: cell-based

T1 sequence (P41594 21-1212): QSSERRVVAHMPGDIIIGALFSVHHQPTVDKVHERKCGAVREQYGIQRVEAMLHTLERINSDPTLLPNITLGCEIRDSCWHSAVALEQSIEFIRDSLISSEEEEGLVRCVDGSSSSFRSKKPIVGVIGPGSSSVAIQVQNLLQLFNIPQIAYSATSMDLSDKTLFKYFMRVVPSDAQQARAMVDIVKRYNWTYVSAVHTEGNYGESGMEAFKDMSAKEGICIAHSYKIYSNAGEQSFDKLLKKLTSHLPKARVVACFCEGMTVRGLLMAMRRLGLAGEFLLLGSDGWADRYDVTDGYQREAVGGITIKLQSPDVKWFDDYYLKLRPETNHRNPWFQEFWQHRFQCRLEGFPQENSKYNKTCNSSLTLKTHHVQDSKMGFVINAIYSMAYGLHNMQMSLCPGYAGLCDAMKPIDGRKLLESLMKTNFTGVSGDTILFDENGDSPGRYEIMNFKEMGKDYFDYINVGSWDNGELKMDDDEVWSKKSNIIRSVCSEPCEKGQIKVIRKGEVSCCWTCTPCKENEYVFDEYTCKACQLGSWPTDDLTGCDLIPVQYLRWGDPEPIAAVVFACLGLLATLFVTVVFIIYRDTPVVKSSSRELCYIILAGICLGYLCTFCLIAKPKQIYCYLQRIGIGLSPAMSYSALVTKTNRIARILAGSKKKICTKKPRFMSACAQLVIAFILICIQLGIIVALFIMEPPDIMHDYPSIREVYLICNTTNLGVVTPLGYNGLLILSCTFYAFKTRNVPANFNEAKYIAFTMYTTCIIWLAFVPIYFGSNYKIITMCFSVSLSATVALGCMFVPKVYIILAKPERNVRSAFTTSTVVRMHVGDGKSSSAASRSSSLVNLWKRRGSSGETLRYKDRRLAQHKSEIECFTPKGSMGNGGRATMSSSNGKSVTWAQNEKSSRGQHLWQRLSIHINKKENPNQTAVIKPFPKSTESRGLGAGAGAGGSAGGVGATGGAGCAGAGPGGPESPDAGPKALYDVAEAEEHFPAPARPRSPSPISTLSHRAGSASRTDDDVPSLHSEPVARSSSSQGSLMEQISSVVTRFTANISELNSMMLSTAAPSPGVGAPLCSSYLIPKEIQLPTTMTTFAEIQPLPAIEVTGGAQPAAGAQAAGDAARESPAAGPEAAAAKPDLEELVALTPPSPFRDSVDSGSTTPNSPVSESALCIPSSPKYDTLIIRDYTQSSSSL

| Structure (SMILES) | IC50 [nM] |
| --- | --- |
| Cc1ccncc1-c1cc(C(=O)Nc2cccc(Cl)n2)c(F)cc1F [Compound 48, N-(6-chloropyridin-2-yl)-2,4-difluoro-5-(4-methylpyridin-3-yl)benzamide] | 192 |
| Cc1ccncc1-c1cc(C(=O)Nc2ccccn2)cc(F)c1F [Compound 49, 3,4-difluoro-5-(4-methylpyridin-3-yl)-N-(pyridin-2-yl)benzamide] | 412 |
| Cc1ccncc1-c1cc(C(=O)Nc2cccc(Cl)n2)cc(F)c1F [Compound 50, N-(6-chloropyridin-2-yl)-3,4-difluoro-5-(4-methylpyridin-3-yl)benzamide] | 79 |
| Cc1csc(NC(=O)c2cc(F)c(F)c(-c3cnccc3C)c2)n1 [Compound 51, 3,4-difluoro-5-(4-methylpyridin-3-yl)-N-(4-methylthiazol-2-yl)benzamide] | 437 |
